Measured values from paper PMC12704298, “Divergent acetyl-CoA binding modes mediate allosteric inhibition of bacterial hybrid-type malic enzymes” (The Journal of Biological Chemistry, 2025).

Experiments:
[1] = target: T1, EcMaeB (Escherichia coli, UniProt P76558); experiment: Acetyl-CoA IC50 plot against MaeB activity (spectrophotometric NADPH assay); assay type: biochemical
T1 construct: His-tag (C); made in house; host or cells: E. coli BL21(DE3)
T1 sequence (P76558 1-759): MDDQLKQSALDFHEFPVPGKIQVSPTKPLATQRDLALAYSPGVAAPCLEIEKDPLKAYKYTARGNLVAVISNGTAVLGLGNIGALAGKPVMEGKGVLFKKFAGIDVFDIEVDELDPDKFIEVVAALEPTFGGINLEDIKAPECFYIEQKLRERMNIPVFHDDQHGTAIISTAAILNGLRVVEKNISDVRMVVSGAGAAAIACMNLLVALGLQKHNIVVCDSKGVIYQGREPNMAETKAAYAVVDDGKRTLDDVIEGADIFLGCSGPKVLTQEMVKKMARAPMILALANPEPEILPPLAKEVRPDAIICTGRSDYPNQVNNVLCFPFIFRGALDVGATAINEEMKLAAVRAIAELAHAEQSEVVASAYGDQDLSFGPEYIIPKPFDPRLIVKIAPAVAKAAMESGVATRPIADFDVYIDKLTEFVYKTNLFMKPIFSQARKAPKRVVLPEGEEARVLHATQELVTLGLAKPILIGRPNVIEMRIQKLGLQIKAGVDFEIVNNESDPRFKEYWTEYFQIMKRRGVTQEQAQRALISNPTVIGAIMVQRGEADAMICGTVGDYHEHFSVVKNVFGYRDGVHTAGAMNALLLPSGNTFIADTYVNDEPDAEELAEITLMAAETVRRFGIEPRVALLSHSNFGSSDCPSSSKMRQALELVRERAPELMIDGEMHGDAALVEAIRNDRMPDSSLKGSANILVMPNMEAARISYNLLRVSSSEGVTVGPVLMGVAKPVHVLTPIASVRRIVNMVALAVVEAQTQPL
Experimental: (§1) Spectrophotometric assays were used to monitor the oxidative decarboxylation of L-malate to pyruvate using a SpectraMax M2, UV-Visible spectrophotometer (Molecular Devices) operated by SoftMax Pro Software with kinetic mode. All assays recorded the Δabsorbance at 340 nm (NADPH) at 30 °C. Assays were initiated by the addition of enzyme to the otherwise complete reaction mixture. […] Acetyl-CoA was tested at 5 μM.
(§2) The IC50 plot for Acetyl-CoA against MaeB activity was obtained by varying acetyl-CoA concentrations. The assay was performed in the standard reaction condition with 100 nM final enzyme concentration. The data were fitted to the four-parameter logistic model: v0=Bottom+Top−Bottom/1+([Acetyl-CoA]/IC50)^h where h means the Hill slope value and “Top” and “Bottom” corresponds to the maximum and minimum v0 of the fitted curve, respectively ([81]). Fitting was performed using Rstudio.

[2] = target: BbMaeB-SSB (Bdellovibrio bacteriovorus, UniProt A0A1Z3N8R4); experiment: as above; assay type: biochemical, Bdellovibrio bacteriovorus strain SSB218315
Experimental: as §1, §2

[3] = target: T1, EcMaeB; experiment: Enzyme kinetic parameters (Michaelis-Menten, substrate inhibition, empirical Hill plots); assay type: biochemical; conditions: EcMaeB; versus malate, not conclusive
Experimental: as §1
(§3) For this substrate inhibition model, x should be fixed. […] The plots shown in Fig. S1F were fitted to the empirical Hill equation: v0=Vmax·[malate]^h/(K0.5h+[malate]^h) where K0.5 indicates the substrate concentration for half-saturation. When h is equal to 1, K0.5 matches Michaelis constant Km.

[4] = target: T2, BbMaeB (Bdellovibrio bacteriovorus, UniProt A0A1Z3N8R4); experiment: as above; assay type: biochemical, Bdellovibrio bacteriovorus strain SSB218315; conditions: versus malate
T2 sequence (A0A1Z3N8R4 1-776): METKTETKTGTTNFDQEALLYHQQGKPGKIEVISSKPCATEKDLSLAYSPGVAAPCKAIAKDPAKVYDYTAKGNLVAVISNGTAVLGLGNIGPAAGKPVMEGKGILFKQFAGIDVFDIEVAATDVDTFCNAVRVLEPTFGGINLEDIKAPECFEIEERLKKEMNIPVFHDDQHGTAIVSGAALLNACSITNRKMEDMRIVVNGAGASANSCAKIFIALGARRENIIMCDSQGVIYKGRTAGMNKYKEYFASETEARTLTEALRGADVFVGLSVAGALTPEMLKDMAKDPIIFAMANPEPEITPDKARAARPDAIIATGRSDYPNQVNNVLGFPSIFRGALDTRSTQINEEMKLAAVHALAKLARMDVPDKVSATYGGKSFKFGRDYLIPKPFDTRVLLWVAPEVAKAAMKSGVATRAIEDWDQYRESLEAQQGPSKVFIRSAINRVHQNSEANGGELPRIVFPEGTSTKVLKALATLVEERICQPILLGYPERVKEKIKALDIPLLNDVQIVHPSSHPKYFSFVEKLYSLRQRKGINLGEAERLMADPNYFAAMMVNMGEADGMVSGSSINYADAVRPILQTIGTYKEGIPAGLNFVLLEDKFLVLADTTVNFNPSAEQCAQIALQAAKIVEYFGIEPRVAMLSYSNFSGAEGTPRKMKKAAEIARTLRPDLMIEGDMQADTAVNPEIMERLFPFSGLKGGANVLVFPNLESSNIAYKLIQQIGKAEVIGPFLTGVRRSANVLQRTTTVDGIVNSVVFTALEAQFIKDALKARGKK
Experimental: as §1, §3

[5] = system: T3, EcMaeB R475A/R482A/Y510A; experiment: %Activity assay with 5 μM acetyl-CoA; assay type: biochemical, Escherichia coli
T3 construct: His-tag (C); made in house; host or cells: E. coli BL21(DE3)
Experimental: (§4) Spectrophotometric assays were used to monitor the oxidative decarboxylation of L-malate to pyruvate using a SpectraMax M2, UV-Visible spectrophotometer (Molecular Devices) operated by SoftMax Pro Software with kinetic mode. All assays recorded the Δabsorbance at 340 nm (NADPH) at 30 °C. Assays were initiated by the addition of enzyme to the otherwise complete reaction mixture. […] Acetyl-CoA was tested at 5 μM. The results are presented as “%Activity”: a percentage of the measured activity in the presence of effector compared to the measured activity of MaeB under standard reaction conditions.

[6] = system: T4, EcMaeB R475A/R482A; experiment: %Activity assay with 5 μM acetyl-CoA; assay type: biochemical, Escherichia coli
T4 construct: His-tag (C); made in house; host or cells: E. coli BL21(DE3)
Experimental: as §4

[7] = system: T5, EcMaeB R475A/Y510A; experiment: %Activity assay with 5 μM acetyl-CoA; assay type: biochemical, Escherichia coli
T5 construct: His-tag (C); made in house; host or cells: E. coli BL21(DE3)
Experimental: as §4

[8] = system: T6, EcMaeB R475A; experiment: %Activity assay with 5 μM acetyl-CoA; assay type: biochemical, Escherichia coli
T6 construct: His-tag (C); made in house; host or cells: E. coli BL21(DE3)
Experimental: as §4

[9] = system: T7, EcMaeB R482A/Y510A; experiment: %Activity assay with 5 μM acetyl-CoA; assay type: biochemical, Escherichia coli
T7 construct: His-tag (C); made in house; host or cells: E. coli BL21(DE3)
Experimental: as §4

[10] = system: T8, EcMaeB R482A; experiment: %Activity assay with 5 μM acetyl-CoA; assay type: biochemical, Escherichia coli
T8 construct: His-tag (C); made in house; host or cells: E. coli BL21(DE3)
Experimental: as §4

[11] = system: T9, EcMaeB WT; experiment: %Activity assay with 5 μM acetyl-CoA; assay type: biochemical, Escherichia coli
T9 construct: His-tag (C); made in house; host or cells: E. coli BL21(DE3)
Experimental: as §4

[12] = system: T10, EcMaeB Y510A; experiment: %Activity assay with 5 μM acetyl-CoA; assay type: biochemical, Escherichia coli
T10 construct: His-tag (C); made in house; host or cells: E. coli BL21(DE3)
Experimental: as §4

[13] = system: BbMaeB-HD; design: method as in PMID 33623032; conditions: earlier study; cited from earlier work
[14] = system: DME; design: method as in PMID 10407149; conditions: cited from earlier work
[15] = system: TME; design: method as in PMID 10407149; conditions: cited from earlier work
[16] = system: AbMaeB1; design: method as in PMID 32485238; conditions: AbMaeB1, compared to EcMaeB and BbMaeB; cited from earlier work
[17] = 5 mM L-malate, 0.5 mM NADP+, 1 μM enzyme
[18] = relative to WT without acetyl-CoA

CC(=O)SCCNC(=O)CCNC(=O)[C@H](O)C(C)(C)COP(=O)(O)OP(=O)(O)OC[C@H]1O[C@@H](n2cnc3c(N)ncnc32)[C@H](O)[C@@H]1OP(=O)(O)O [acetyl-CoA, acetyl coenzyme A]
Hill slope factor derived from the IC50 curve [1]: greater than one | IC50 ([1]; 5 mM L-malate, 0.5 mM NADP+, 5 mM MgCl2, 100 nM enzyme, 30 °C): 102000 ± 4920 nM | Hill slope factor derived from the IC50 curve ([2]; BbMaeB): greater than one | IC50 ([2]; BbMaeB-SSB, 5 mM L-malate, 0.5 mM NADP+, 5 mM MgCl2, 100 nM enzyme, 30 °C): 131 ± 4 nM | mode of inhibition [3]: may follow a non-competitive mode | mode of inhibition [4]: non-competitive | effect of acetyl-CoA on activity [5]: did not change their activity | NADP^+ production, With Acetyl-CoA [5, 17]: 10.3 ± 0.4 µM/min | Activity (%), With Acetyl-CoA [5, 18]: 39.5 ± 1.4% | effect of acetyl-CoA on activity [6]: did not change their activity | NADP^+ production, With Acetyl-CoA [6, 17]: 10.7 ± 0.5 µM/min | Activity (%), With Acetyl-CoA [6, 18]: 40.8 ± 2.0% | NADP^+ production, With Acetyl-CoA [7, 17]: 31.9 ± 2.0 µM/min | Activity (%), With Acetyl-CoA [7, 18]: 121.9 ± 7.6% | effect of acetyl-CoA on activity [8]: insensitive to allosteric inhibition | NADP^+ production, With Acetyl-CoA [8, 17]: 21.6 ± 3.7 µM/min | Activity (%), With Acetyl-CoA [8, 18]: 82.4 ± 14.0% | effect of acetyl-CoA on activity [9]: did not change their activity | NADP^+ production, With Acetyl-CoA [9, 17]: 7.0 ± 0.1 µM/min | Activity (%), With Acetyl-CoA [9, 18]: 26.7 ± 0.5% | effect of acetyl-CoA on activity [10]: did not change their activity | NADP^+ production, With Acetyl-CoA [10, 17]: 8.4 ± 1.4 µM/min | Activity (%), With Acetyl-CoA [10, 18]: 32.3 ± 5.5% | effect of acetyl-CoA on activity [11]: reduced the activity by about half | NADP^+ production, With Acetyl-CoA [11, 17]: 12.1 ± 2.2 µM/min | Activity (%), With Acetyl-CoA [11, 18]: 46.4 ± 8.5% | effect of acetyl-CoA on activity [12]: insensitive to allosteric inhibition | NADP^+ production, With Acetyl-CoA [12, 17]: 19.4 ± 4.0 µM/min | Activity (%), With Acetyl-CoA [12, 18]: 74.0 ± 15.4% | IC50 [13]: 453 ± 19 nM | effect on DME activity [14]: inhibited | allosteric regulation of TME [15]: does not show any allosteric regulation | allosteric inhibition of AbMaeB1 [16]: requires higher concentrated acetyl-CoA to show allosteric inhibition
